Assays:
[1] = biological target: T1, ACSS2 (Homo sapiens, UniProt Q9NR19); test: Cellular assay of 14C acetate incorporation into histones (IC50 ACSS2 cellular histone); format: cell-based; settings: HCT-15 cells
T1 construct: endogenous fatty acid synthesis activity in the human HCT-15 cancer cell line; endogenous in cells; host or cells: HCT-15
Procedure, shortened: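 Human HCT-15 cells preincubated 1 h with compound (0.25% DMSO final), then pulsed 3 h with 14C-acetate. Histones were acid-extracted (0.2 M HCl, overnight, 4° C) after Triton lysis in sodium-butyrate buffer; incorporated 14C counted by liquid scintillation (CPM) to give IC50.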

[2] = biological target: T2, human rec ACSS2 (Homo sapiens, UniProt Q9NR19); test: Biochemical activity ACSS2 assay (AMP-Glo); settings: human recombinant ACSS2, AMP-Glo, 180 min at 37° C.
T2 construct: myc (C); purchased Origene
T2 sequence (Q9NR19 whole entry): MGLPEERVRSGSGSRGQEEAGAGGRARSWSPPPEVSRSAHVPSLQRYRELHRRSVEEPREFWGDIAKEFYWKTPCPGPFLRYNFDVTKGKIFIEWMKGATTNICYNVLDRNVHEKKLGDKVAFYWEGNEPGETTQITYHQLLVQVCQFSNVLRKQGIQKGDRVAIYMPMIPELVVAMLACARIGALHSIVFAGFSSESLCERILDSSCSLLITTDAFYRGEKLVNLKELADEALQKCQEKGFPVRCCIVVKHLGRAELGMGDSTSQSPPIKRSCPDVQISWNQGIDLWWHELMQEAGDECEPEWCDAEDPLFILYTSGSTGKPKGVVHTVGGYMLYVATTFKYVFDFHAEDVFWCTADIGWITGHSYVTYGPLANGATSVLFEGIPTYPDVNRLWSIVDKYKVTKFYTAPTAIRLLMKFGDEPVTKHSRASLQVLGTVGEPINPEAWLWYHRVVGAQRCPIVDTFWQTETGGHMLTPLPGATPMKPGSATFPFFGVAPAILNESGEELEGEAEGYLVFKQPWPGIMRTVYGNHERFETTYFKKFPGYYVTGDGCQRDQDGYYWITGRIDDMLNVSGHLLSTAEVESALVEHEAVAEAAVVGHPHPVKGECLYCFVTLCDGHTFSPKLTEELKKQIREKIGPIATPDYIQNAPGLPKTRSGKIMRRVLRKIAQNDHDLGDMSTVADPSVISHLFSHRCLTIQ
Procedure, shortened: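 C-terminal myc-tagged human recombinant ACSS2 (1 nM) reacted with 100 µM ATP, 100 µM CoA and 500 µM acetate (final) in pH 7.5 Hepes buffer for 180 min at 37° C, compound in 10 concentrations from 30 µM. Released AMP detected by AMP-Glo luminescence. IC50 normalised to inhibitor-free reaction and 5 µM reference inhibitor.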

[3] = biological target: T1, ACSS2; test: Cellular assay of 14C acetate incorporation into fatty acids (IC50 ACSS2 cellular lipids); format: cell-based; settings: HCT-15 cells
Protocol: This protocol describes a cellular assay capable to quantify endogenous fatty acid synthesis activity in the human HCT-15 cancer cell line following the incorporation of extracellularly administered radiolabeled ^14C acetate with a scintillation proximity based read out on extracted fatty acids.
HCT-15 cells were grown in RPMI 1640 (Gibco) supplemented with 2 mM glutamine, 1 mM sodium pyruvate 10 mM HEPES and 10 % FCS (heat-inactivated) passaged every 2-3 days to remain a subconfluent, vital culture. A working cell bank was prepared with each aliquot containing 1x10^7 viable cells. After thawing, these cells are dilute immediately 1:20 in pre-warmed (37° C.) culture medium. Cells are collected by centrifugation at 200 x g for 5 min, and the supernatant is replaced by 30 mL of fresh culture medium per aliquot to obtain a cell suspension containing 350000 cells/ml. From this cell suspension 100 µL are dispersed into each well of a collagen coated 96 well plate, (black, clear bottom, PS, F-bottom, Greiner) and culture for 24 h (37° C., 5% CO2). After incubation the culture medium is removed and the wells are washed once with 100 µL PBS++ (supplemented with Mg^2+/ Ca^2+, Gibco) and 50 µL assay medium (RPMI 1640 + 10 mM HEPES) are added to each well. Compounds serial dilutions are prepared from 10 mM stock solutions in DMSO using a fixed dilution factor (usually 1:3). After preparation of the dilution series in DMSO, the individual dilutions are further diluted in the assay medium. This working dilution is prepared such, that the concentration is 7x of the final concentration in the assay. The maximal DMSO concentration in the final assay is 0.1%.
To each well 10 µL compound working dilution or DMSO blank are added and the cells are cultured for 2 h (37° C., 5% CO2). Then 10 µL AlamarBlue reagent (Invitrogen) containing 14 µCi/mL ^14C-acetate (Perkin Elmer) are added to each well (70 µl total volume) and cells are again cultured for 2 h. Cell viability is verified by measuring the AlamarBlue fluorescence (Tecan Safire, ex: 544 nm / em: 590 nm). After incubation the culture medium is removed and the wells are carefully washed once with cold 100 µL PBS++. For cell lysis and fatty acid recovery 50 µl 0.1 M NaOH and 0.1 % Triton-X100 are added per well. The plate is sealed with PlateLoc (clear peelable heat seal, Agilent) and incubate at 70° C. for 16-24 h. After cooling to room temperature, the plates are centrifuged for 1 min at 1000 rpm and the plate seals are removed. For acidification 150 µL 0.1 M HCl are added to each well, mixed and 150 µL of the mixture are transferred into a 96 well FlashPlate (Perkin Elmer). The plates are sealed with TopSeaI-a (Perkin Elmer). To allow for the fatty acid binding to the well surfaces the plates are incubate for 4 h at 70° C. After cooling to room temperature, the plates are centrifuged for 1 min at 1000 rpm and stored for 0.5-2 h at room temperature in the dark. Radioactivity from ^14C incorporation into fatty acids in the wells is measured as CPM count in a MicroBeta scintillation counter (Perkin Elmer).

T1 sequence (Q9NR19 whole entry): as above

| IC50 [1] [nM] | IC50 [2] [nM] | IC50 [3] [nM] | SMILES |
| --- | --- | --- | --- |
| 0.01 to 1 | 0.01 to 1 | 1 to 10 | CCc1cnc(NC(=O)c2cc3c(nc2OC)nc(C(O)(c2ccccc2)c2ccccc2)n3CC)o1 [Compound 60, 1-ethyl-N-(5-ethyl-1,3-oxazol-2-yl)-2-(hydroxydiphenylmethyl)-5-methoxy-1H-imidazo[4,5-b]pyridine-6-carboxamide] |
| 1 to 10 | 1 to 10 | 100 to 10000 | CCn1cnc(NC(=O)c2cc3c(nc2OC)nc(C(O)(c2ccccc2)c2ccccc2)n3CCO)n1 [Compound 50, N-(1-ethyl-1H-1,2,4-triazol-3-yl)-2-(hydroxydiphenylmethyl)-1-(2-hydroxyethyl)-5-methoxy-1H-imidazo[4,5-b]pyridine-6-carboxamide] |
| 1 to 10 | 1 to 10 | 1 to 10 | CCn1cnc(NC(=O)c2cc3c(nc2OC)nc(C(O)(c2ccccc2)c2ccccc2)n3CC)c1 [Compound 76, 1-ethyl-N-(1-ethyl-1H-imidazol-4-yl)-2-(hydroxydiphenylmethyl)-5-methoxy-1H-imidazo[4,5-b]pyridine-6-carboxamide] |
| 0.01 to 1 | 1 to 10 | 10 to 100 | CCn1cnc(NC(=O)c2cc3c(nc2OC)nc(C(O)(c2ccccc2)c2cccs2)n3CC)n1 (racemic) [Compound 47, 1-ethyl-N-(1-ethyl-1H-1,2,4-triazol-3-yl)-2-[hydroxy(phenyl)(thiophen-2-yl)methyl]-5-methoxy-1H-imidazo[4,5-b]pyridine-6-carboxamide] |
| 100 to 10000 | 10 to 100 | 100 to 10000 | CCn1c(C(O)(c2ccccc2)c2ccccc2)nc2nc(OC)c(C(=O)Nc3ncn(CCN)n3)cc21 [Compound 46, N-[1-(2-aminoethyl)-1H-1,2,4-triazol-3-yl]-1-ethyl-2-(hydroxydiphenylmethyl)-5-methoxy-1H-imidazo[4,5-b]pyridine-6-carboxamide] |
| 10 to 100 | 10 to 100 | 100 to 10000 | CCn1c(C(O)(c2ccccc2)c2ccccc2)nc2nc(OC)c(C(=O)Nc3ncn(CCOC)n3)cc21 [Compound 68, 1-ethyl-2-(hydroxydiphenylmethyl)-5-methoxy-N-[1-(2-methoxyethyl)-1H-1,2,4-triazol-3-yl]-1H-imidazo[4,5-b]pyridine-6-carboxamide] |
| 1 to 10 | 1 to 10 | 10 to 100 | CCn1cnc(NC(=O)c2cc3c(nc2C)nc(C(O)(c2ccccc2)c2ccccc2)n3CC)n1 [Compound 108, 1-ethyl-N-(1-ethyl-1H-1,2,4-triazol-3-yl)-2-(hydroxydiphenylmethyl)-5-methyl-1H-imidazo[4,5-b]pyridine-6-carboxamide] |
| 10 to 100 | 0.01 to 1 | 0.01 to 1 | CCc1nnc(NC(=O)c2cc3c(nc2OC)nc(C(O)(c2ccccc2)c2ccccc2)n3CC)o1 [Compound 64, 1-ethyl-N-(5-ethyl-1,30,4-oxadiazol-2-yl)-2-(hydroxydiphenylmethyl)-5-methoxy-1H-imidazo[4,5-b]pyridine-6-carboxamide] |
| 1 to 10 | 1 to 10 | 1 to 10 | CCn1cc(NC(=O)c2cc3c(nc2OC)nc(C(O)(c2ccccc2F)c2ccccc2F)n3CC)cn1 [Compound 104, 2-[bis(2-fluorophenyl)(hydroxy)methyl]-1-ethyl-N-(1-ethyl-1H-pyrazol-4-yl)-5-methoxy-1H-imidazo[4,5-b]pyridine-6-carboxamide] |
| 100 to 10000 | 1 to 10 | 100 to 10000 | CCn1cnc(NC(=O)c2cnc3nc(C(O)(c4ccccc4)c4ccccc4)n(CC)c3c2)n1 [Compound 111, 1-ethyl-N-(1-ethyl-1H-1,2,4-triazol-3-yl)-2-(hydroxydiphenylmethyl)-1H-imidazo[4,5-b]pyridine-6-carboxamide] |
| 10 to 100 | 10 to 100 | 1 to 10 | CCc1nnc(CNC(=O)c2cc3c(nc2OC)nc(C(O)(c2ccccc2)c2ccccc2)n3CC)o1 [Compound 62, 1-ethylN-[(5-ethyl-1,30,4-oxadiazol-2-yl)methyl]-2-(hydroxydiphenylmethyl)-5-methoxy-1H-imidazo[4,5-b]pyridine-6-carboxamide] |
| 0.01 to 1 | 1 to 10 | 10 to 100 | CCn1cc(NC(=O)c2cc3c(nc2C)nc(C(O)(c2ccccc2F)c2ccccc2F)n3CC)cn1 [Compound 107, 2-[bis(2-fluorophenyl)(hydroxy)methyl]-1-ethyl-N-(1-ethyl-1H-pyrazol-4-yl)-5-methyl-1H-imidazo[4,5-b]pyridine-6-carboxamide] |
| 10 to 100 | 1 to 10 | 10 to 100 | CCn1c(C(O)(c2ccccc2)c2ccccc2)nc2nc(OC)c(C(=O)Nc3ncn(CCO)n3)cc21 [Compound 73, 1-ethyl-2-(hydroxydiphenylmethyl)-N-[1-(2-hydroxyethyl)-1H-1,2,4-triazol-3-yl]-5-methoxy-1H-imidazo[4,5-b]pyridine-6-carboxamide] |
| 1 to 10 | 1 to 10 | 1 to 10 | CCc1c(C(O)(c2ccccc2F)c2ccccc2F)nn2cc(Cl)c(C(=O)Nc3cnn(CC)c3)cc12 [Compound 12, 2-[Bis-(2-fluoro-phenyl)-hydroxy-methyl]-6-chloro-3-ethyl-pyrazolo[1,5-a]pyridine-5-carboxylic acid (1-ethyl-1H-pyrazol-4-yl)-amide] |
| 10 to 100 | 100 to 10000 | 1 to 10 | CCn1c(C(O)(c2ccccc2)c2ccccc2)nc2nc(Cl)c(C(=O)Nc3cnn(CCO)c3)cc21 [Compound 66, 5-chloro-1-ethyl-2-(hydroxydiphenylmethyl)-N-[1-(2-hydroxyethyl)-1H-pyrazol-4-yl]-1H-imidazo[4,5-b]pyridine-6-carboxamide] |
| 10 to 100 | 10 to 100 | 0.01 to 1 | CCn1c(C(O)(c2ccccc2)c2ccccn2)nc2nc(OC)c(C(=O)Nc3ncn(CCO)n3)cc21 (racemic) [Compound 61, 1-ethyl-2-[hydroxy(phenyl)(pyridin-2-yl)methyl]-N-[1-(2-hydroxyethyl)-1H-1,2,4-triazol-3-yl]-5-methoxy-1H-imidazo[4,5-b]pyridine-6-carboxamide] |
| 0.01 to 1 | 1 to 10 | 1 to 10 | CCn1ccc(NC(=O)c2cc3c(nc2Cl)nc(C(O)(c2ccccc2)c2ccccc2)n3CC)n1 [Compound 83, 5-chloro-1-ethyl-N-(1-ethyl-1H-pyrazol-3-yl)-2-(hydroxydiphenylmethyl)-1H-imidazo[4,5-b]pyridine-6-carboxamide] |
| 0.01 to 1 | 1 to 10 | 0.01 to 1 | CCn1cnc(NC(=O)c2cc3c(nc2OC)nc(C(O)(c2cccs2)c2cccs2)n3CC)n1 [Compound 55, 1-ethyl-N-(1-ethyl-1H-1,2,4-triazol-3-yl)-2-[hydroxybis(thiophen-2-yl)methyl]-5-methoxy-1H-imidazo[4,5-b]pyridine-6-carboxamide] |
| 1 to 10 | 0.01 to 1 | 0.01 to 1 | CCn1cnc(NC(=O)c2cc3c(nc2OC)nc(C(O)(c2ccc(OC(F)F)cc2)c2ccccc2F)n3CC)n1 (single isomer, unassigned) [Compound 75] |
| 1 to 10 | 10 to 100 | 1 to 10 | CCn1cc(NC(=O)c2cc3c(nc2F)nc(C(O)(c2ccccc2)c2ccccc2)n3CC)cn1 [Compound 92, 1-ethyl-N-(1-ethyl-1H-pyrazol-4-yl)-5-fluoro-2-(hydroxydiphenylmethyl)-1H-imidazo[4,5-b]pyridine-6-carboxamide] |

— patent US20230271956A1, “AMIDE DERIVATIVES” (Merck Patent GmbH, priority 2020, published 2023)
